Test results published in patent publication US10889560B2, “4-amino-2-pyrido-bicyclic pyrimidines and use thereof as topoisomerase II inhibitors” (FONDAZIONE ISTITUTO ITALIANO DI TECNOLOGIA, priority 2016, dated 2021).
Converted amounts (≈) assume the structure as drawn.

Legend:
[1] = Stability in mouse plasma; format: in vitro ADME; settings: read-out: Stability (t 1/2) Mouse plasma
[2] = target: human type II topoisomerase (topo II); assay: Topo II inhibitory activity; format: biochemical
DU145 = assay: Cell activity (cancer cell proliferation), DU145; format: cell-based; settings: Homo sapiens, DU-145
Kinetic solubility = format: physicochemical; settings: kinetic from dmso stock
A549 = assay: Cell activity (cancer cell proliferation), A549; format: cell-based; settings: Homo sapiens
[3] = Stability in mouse liver microsomes; format: in vitro ADME; settings: read-out: Stability (t 1/2) Mouse liver microsomes
Thermodynamic solubility = format: physicochemical; settings: thermodynamic from solid; Termodinamic
HeLa = assay: Cell activity (cancer cell proliferation), HeLa; format: cell-based; settings: Homo sapiens
MCF7 = assay: Cell activity (cancer cell proliferation), MCF7; format: cell-based; settings: Homo sapiens
A375 = assay: Cell activity (cancer cell proliferation), A375; format: cell-based; settings: Homo sapiens, A-375
G361 = assay: Cell activity (cancer cell proliferation), G361; format: cell-based; settings: Homo sapiens, G-361

SMILES | half-life [1] [h] | IC50 [2] [µM] | IC50 (DU145) [µM] | solubility kinetic (Kinetic solubility) [µM] | IC50 (A549) [µM] | further results
N[C@H]1CCc2nc(-c3ccncc3)nc(Nc3cccc(F)c3)c2C1 (single isomer, unassigned) [Example E1.3] | > 2 | – | – | > 250 | – | –
NC1CCc2nc(-c3ccncc3)nc(Nc3ccc(O)cc3)c2C1 (stereo not drawn) [Example E1.9, 4-[[6-amino-2-(4-pyridyl)-5,6,7,8-tetrahydroquinazolin-4-yl]amino]phenol] | – | > 500 | 20.8 | – | 74.5 | –
Fc1cccc(Nc2nc(-c3ccncc3)nc3ccccc23)c1 [Example E6, N-(3-fluorophenyl)-2-(4-pyridyl)quinazolin-4-amine] | – | – | – | – | – | Activity Topo II IC50 (μM) [2]: inactive
COc1cccc(Nc2nc(-c3ccncc3)nc3c2CC(N)CC3)c1 (stereo not drawn) [Example E1.5, N4-(3-methoxyphenyl)-2-(4-pyridyl)-5,6,7,8-tetrahydroquinazoline-4,6-diamine] | > 2 | – | – | > 250 | 26.2 | –
Fc1cccc(Nc2nc(-c3ccncc3)nc3ccncc23)c1 [Example E4, N-(3-fluorophenyl)-2-(4-pyridyl)pyrido[4,3-d]pyrimidin-4-amine] | – | > 200 | – | – | – | –
NC1CCc2nc(-c3ccncc3)nc(Nc3ccc(F)cc3)c2C1 (stereo not drawn) [Example E1.8, N4-(4-fluorophenyl)-2-(4-pyridyl)-5,6,7,8-tetrahydroquinazoline-4,6-diamine] | > 2 | – | – | > 250 | – | –
NC1CCc2nc(-c3cccnc3)nc(Nc3cccc(F)c3)c2C1 (stereo not drawn) [Example E1.10, N4-(3-fluorophenyl)-2-(3-pyridyl)-5,6,7,8-tetrahydroquinazoline-4,6-diamine] | > 2 | – | 25.4 | – | 21.3 | –
CN(C)c1ccc(Nc2nc(-c3ccncc3)nc3c2CC(N)CC3)cc1 (stereo not drawn) [Example E1.11, N4-[4-(dimethylamino)phenyl]-2-(4-pyridyl)-5,6,7,8-tetrahydroquinazoline-4,6-diamine] | > 2 | 3.5 ± 0.5 | – | > 250 | – | half-life [3]: > 1 h; solubility (Thermodynamic solubility): 452 µM (≈ 163 µg/mL)
Nc1ccc2nc(-c3ccncc3)nc(Nc3cccc(F)c3)c2c1 [Example E3, N4-(3-fluorophenyl)-2-(4-pyridyl)quinazoline-4,6-diamine] | 1.48 | 80 ± 15 | 7.7 | 17 (≈ 5.63 µg/mL) | 9.2 | IC50 (HeLa): 4.7 µM; half-life [3]: 0.367 h; IC50 (MCF7): 8.6 µM; IC50 (A375): 8.3 µM; IC50 (G361): 10.4 µM; solubility (Thermodynamic solubility): 0.2 µM (≈ 0.0663 µg/mL)

The next lines start with results.

half-life [1] [h] | IC50 [2] [µM] | IC50 (DU145) [µM] | solubility kinetic (Kinetic solubility) [µM] | IC50 (A549) [µM] | SMILES | further results
> 2 | 150 ± 18 | 85.2 | > 250 | 513 | Nc1cccc(Nc2nc(-c3ccncc3)nc3c2CNCC3)c1 [Example E2.3, N1-[2-(4-pyridyl)-5,6,7,8-tetrahydropyrido[4,3-d]pyrimidin-4-yl]benzene-1,3-diamine] | –
– | 200 ± 15 | – | – | – | Oc1ccc(Nc2nc(-c3ccncc3)nc3c2CNCC3)cc1 [Example E2.6, 4-[[2-(4-pyridyl)-5,6,7,8-tetrahydropyrido[4,3-d]pyrimidin-4-yl]amino]phenol] | –
> 2 | 200 ± 20 | 12.3 | 249 (≈ 82.5 µg/mL) | 14.4 | Cc1cccc(Nc2nc(-c3ccncc3)nc3c2CC(N)CC3)c1 (stereo not drawn) [Example E1.4, N4-(m-tolyl)-2-(4-pyridyl)-5,6,7,8-tetrahydroquinazoline-4,6-diamine] | –
> 2 | – | – | > 250 | – | NC1CCc2nc(-c3ccncc3)nc(Nc3cccc(F)c3)c2C1 (stereo not drawn) [Example E1.1, N4-(3-fluorophenyl)-2-(4-pyridyl)-5,6,7,8-tetrahydroquinazoline-4,6-diamine] | half-life [3]: > 1 h
– | > 200 | 24.5 | – | 33.4 | CNc1cccc(Nc2nc(-c3ccncc3)nc3c2CC(N)CC3)c1 (stereo not drawn) [Example E1.7, N4-[3-(methylamino)phenyl]-2-(4-pyridyl)-5,6,7,8-tetrahydroquinazoline-4,6-diamine] | –
– | > 500 | 37.4 | – | 75.9 | Nc1cccc(Nc2nc(-c3ccncc3)nc3c2CC(N)CC3)c1 (stereo not drawn) [Example E1.6, N4-(3-aminophenyl)-2-(4-pyridyl)-5,6,7,8-tetrahydroquinazoline-4,6-diamine] | –
> 2 | 140 ± 20 | 42.5 | > 250 | 40.8 | CN(C)c1cccc(Nc2nc(-c3ccncc3)nc3c2CNCC3)c1 [Example E2.5, N3,N3-dimethyl-N1-[2-(4-pyridyl)-5,6,7,8-tetrahydropyrido[4,3-d]pyrimidin-4-yl]benzene-1,3-diamine] | –
> 2 | – | – | > 250 | – | N[C@@H]1CCc2nc(-c3ccncc3)nc(Nc3cccc(F)c3)c2C1 (single isomer, unassigned) [Example E1.2] | –
> 2 | 25 ± 5 | 32.9 | > 250 | 23.7 | Fc1cccc(Nc2nc(-c3ccncc3)nc3c2CNCC3)c1 [Example E2.1, N-(3-fluorophenyl)-2-(4-pyridyl)-5,6,7,8-tetrahydropyrido[4,3-d]pyrimidin-4-amine] | IC50 (HeLa): 32.3 µM; half-life [3]: 0.65 h; IC50 (MCF7): 33.4 µM; IC50 (A375): 29.6 µM; IC50 (G361): 6.1 µM; solubility (Thermodynamic solubility): 96 µM (≈ 30.9 µg/mL)
> 2 | 120 ± 13 | 25 | > 250 | 35.3 | COc1cccc(Nc2nc(-c3ccncc3)nc3c2CNCC3)c1 [Example E2.2, N-(3-methoxyphenyl)-2-(4-pyridyl)-5,6,7,8-tetrahydropyrido[4,3-d]pyrimidin-4-amine] | –
> 2 | 160 ± 20 | 45 | > 250 | 61.9 | CNc1cccc(Nc2nc(-c3ccncc3)nc3c2CNCC3)c1 [Example E2.4, N3-methyl-N1-[2-(4-pyridyl)-5,6,7,8-tetrahydropyrido[4,3-d]pyrimidin-4-yl]benzene-1,3-diamine] | –
> 2 | 4.5 ± 1 | – | > 250 | – | Fc1ccccc1Nc1nc(-c2ccncc2)nc2c1CNCC2 [Example E2.7, N-(2-fluorophenyl)-2-(4-pyridyl)-5,6,7,8-tetrahydropyrido[4,3-d]pyrimidin-4-amine] | half-life [3]: 0.5 h; solubility (Thermodynamic solubility): 596 µM (≈ 192 µg/mL)
